As usually defined, the EC50 is the concentration at which the effect is half-maximal. A word on the IC50: it is the midpoint of a concentration-inhibition curve. The low end stands for greater potency in that assay, the high end for weaker potency in that assay.

Calls of active or inactive are those of the source.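 Rule for the calls: active = compounds giving half or more protection of infected cells from virus-caused growth loss, again on retest; inactive = the rest.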

Drawing on PubChem BioAssay AID179 (DTP/NCI, 2004), this text covers EC50, IC50 and outcome for 69 compounds.

In the test the test system is CEM cells HIV-1 protection, formazan growth assay. Nature of the test: NCI AIDS Antiviral Assay. The note with it: for IC50: measured here: growth of uninfected CEM cells. Summed up: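 Soluble formazan readout of cell growth; CEM cells ± HIV-1; 5 drug concs. ≥50% protection → retest; ≥50% again = moderately active; reproducible 100% = confirmed active.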

With `CC(=O)NC1C(OC(C)C(=O)NC(C(=O)NC(CCC(=O)NCCCNC2c3ccccc3Nc3cccc([N+](=O)[O-])c32)C(N)=O)C(C)C)C(O)C(CO)OC1(C)OCc1ccccc1` (stereo not given), the EC50 was > 10 µM and the IC50 was 1.74 µM.
As for `COC(=O)/C(=C(/C)c1ccco1)P(=O)(OC)OC`, the EC50 is > 200 µM and the IC50 was > 200 µM.
In the case of `CC(C)OP(=O)(OC(C)C)/C(F)=N/Nc1ccc([N+](=O)[O-])cc1`, the EC50 is > 38.9 µM and the IC50 was > 38.9 µM.
As for `CO[C@H](C(=O)O[C@H]1C(=O)N2CCC3CCC1C32C)c1ccccc1` (stereo not given in full), the EC50 was > 759 µM and the IC50 came to 501 µM.
The matching figures for `CCOC(=O)NN(C(=O)OCC)C(C(=O)c1ccccc1)N(NC(=O)OCC)C(=O)OCC`: > 200 µM and > 200 µM.
Turning to `CCCCCn1cnc2c1S(=O)(=O)N(C)C(NC(=O)c1ccccc1)=N2`, the EC50 is > 200 µM and the IC50 was > 200 µM.
Turning to `O=C(NC12CC3CC(CC(C3)C1)C2)C(=O)c1c[nH]c2ccccc12`, the outcome was inactive.
Regarding `C/C=C/C=C/c1cc2cc3c(c(O)c2c(=O)[nH]1)C1(CC3)C(O)=c2c(=O)c3c(=O)cc(OC)c(=O)c=3c(=O)c2=C1O` (stereo not given), the EC50 is > 200 µM and the 50% inhibitory concentration (IC50) amounted to 5.89 µM.
In the case of `C=C1C(=O)O[C@H]2C1C[C@@H](O)[C@@]1(C)OC1CC[C@@]1(C)O[C@H]21` (stereo not given in full), the EC50 is > 200 µM and the IC50 was determined as 4.47 µM.
`NS(=O)(=O)c1ccc(NC(=S)/N=C/c2c(O)c3ccccc3oc2=O)cc1`: the EC50 was > 200 µM and the IC50 was found to be 110 µM.
With `CCCNC(=S)N=Nc1c(O)[nH]c2ccccc12`, the EC50 was > 200 µM and the IC50 was > 200 µM.
`COC(=O)c1nc2c(C)c(O)c(O)c([C@H](C)CCC=C(C)C)c2o1`: the EC50 was > 200 µM and the IC50 was 13.5 µM.
Take `Nc1ccc(Oc2ccc(S(=O)(=O)c3ccc(Oc4ccc(N)cc4N)cc3)cc2)c(N)c1`: the EC50 is > 200 µM and the IC50 came out at 120 µM.
For `O=S1(=O)CCCCS1`, the EC50 is > 200 µM and the IC50 came out at 5.37 µM.
On to `Nc1ccc(/C=C/c2ccc(NS(=O)(=O)c3ccnc4c(O)c(C(=O)O)ccc34)cc2S(=O)(=O)O)c(S(=O)(=O)O)c1`, for which the EC50 is 69.2 µM and the IC50 was > 100 µM.
In the case of `Cc1nc2ccccc2c(=O)n1NC(=S)Nc1ccc(Cl)cc1`, the EC50 is > 39.8 µM and the IC50 was > 39.8 µM.
As to `CC[P+](c1ccccc1)(N(C)C)N(C)C`, the EC50 is > 200 µM and the IC50 stood at 112 µM.
Turning to `O=C(CCN(C(=O)O)S(=O)(=O)c1ccc(NC(=O)c2ccccc2)cc1)NC1CCCCC1`, the EC50 was > 525 µM and the IC50 was > 525 µM.
With `O=C1CN(C2CCCCC2)CC(=O)N2C(c3ccccc3)CCCN12` (stereo not given), the EC50 was > 200 µM and the IC50 is > 200 µM.
For `CCN1C[C@]2(COC)CCC(O)C34[C@@H]5C[C@@H]6C(O)[C@@H]5[C@](O)(C[C@@H]6OC)[C@@](O)([C@H]13)[C@@H](OC)[C@@H]42` (stereo not given in full), the result was inactive.
`CC(C)Cc1ccc(C(C)C(=O)O)cc1` (stereo not given): the EC50 is > 1200 µM and the IC50 amounted to 389 µM.
The matching figures for `COc1cccc2c1C(=N)c1c(O)c3c(c(O)c1C2=O)C[C@@](O)(C(C)=O)C[C@@H]3OC1CC(N)C(O)C(C)O1` (stereo not given in full): > 0.2 µM and 0.00631 µM.
For the compound `O=Nc1ccc(O)c(Cl)c1`, the EC50 is > 200 µM and the IC50 was 13.2 µM.
In the case of `COc1ccc(C=O)cc1Oc1ccc(C[C@H]2c3c(cc(OC)c4c3Oc3cc5c(cc3O4)CCN(C)C5=O)CCN2C)cc1`, the EC50 is > 200 µM and the IC50 was determined as 9.77 µM.
Take `COC1Nc2nc3ccccc3nc2NC1OC` (stereo not given): the EC50 is > 363 µM and the 50% inhibitory concentration (IC50) stood at 66.1 µM.
The matching figures for `COc1ccc2c(c1[N+](=O)[O-])CC[C@@H]1[C@@H]2CC[C@]2(C)C(=O)CC[C@@H]12`: > 11 µM and > 11 µM.
Turning to `CC1CC(=O)c2c(cc3c(-c4c(O)cc(O)c5c(O)c6c(cc45)OC(C)CC6=O)c(O)cc(O)c3c2O)O1` (stereo not given), the result was inactive.
In the case of `COc1ccc(/C=C(\C#N)c2ccccc2[N+](=O)[O-])cc1`, the EC50 was > 200 µM and the 50% inhibitory concentration (IC50) worked out at 12.6 µM.
As for `COc1cc(NC=O)c2c(c1)SCCC(=O)N2`, the EC50 was > 200 µM and the half-inhibitory concentration (IC50) is > 200 µM.
As to `CNS(=O)(=O)NN(C)S(=O)(=O)c1ccccc1`, the EC50 is > 891 µM and the IC50 turned out to be 148 µM.
The matching figures for `CCOC(=O)C(Br)=C1OC(=O)c2ccccc2-c2ccccc21` (mixture of isomers): > 36.3 µM and > 36.3 µM.
The matching figures for `CC(C)(C)OC(=O)NC(CSCc1ccc(C(=O)c2ccccc2)cc1)C(=O)O` (stereo not given): > 200 µM and 50.1 µM.
The matching figures for `C=C1c2nc3ccccc3n2C=C(c2ccccc2)N1c1ccc(OC)cc1`: > 200 µM and 12.9 µM.
On to `COC1(OC)CCC2C1C1CCC(OC)(OC)C21` (stereo not given), for which the EC50 is > 141 µM and the IC50 was > 141 µM.
Consider `O=C(N/N=C\c1ccncc1)c1ccncc1`, for which the EC50 was > 200 µM and the IC50 is > 200 µM.
Consider `CC(=O)OC1(C#N)CC2OC1C1N=NN(C(=O)OC(C)(C)C)C21` (stereo not given), for which the EC50 was > 155 µM and the IC50 was found to be 14.8 µM.
`COc1ccccc1Cn1[nH]c(=O)c2cc([N+](=O)[O-])ccc21`: the EC50 was > 200 µM and the IC50 was 63.1 µM.
With `CC(C)CNC(=S)N/N=C\c1ccncc1`, the EC50 is > 200 µM and the IC50 amounted to 105 µM.
On to `Cc1cccc2[nH]c3c(c(O)cc4[nH]c5cccc(C)c5c(=O)c43)c(=O)c12`, for which the EC50 was > 200 µM and the IC50 came to 20.9 µM.
Take `Cc1ccsc1/C=N/Nc1ccccn1`: the EC50 is > 200 µM and the IC50 is 21.4 µM.
As for `O=C(O)c1cccc(S(=O)(=O)NN2C(=O)CSC2c2ccccc2Cl)c1` (stereo not given), the EC50 was > 195 µM and the IC50 was 166 µM.
Regarding `CCNC(=S)NNC(=O)c1csc(NC(=S)NC2CCCCC2)n1`, the EC50 was > 200 µM and the IC50 was determined as 6.61 µM.
Take `COC(=O)/C(C#N)=C/Sc1ccccc1`: the outcome was inactive.
As to `CCCCCCC[CH2][Sn]([CH2]CCCCCCC)([O]c1cccc2cccnc12)[O]c1cccc2cccnc12`, the EC50 was > 21.4 µM and the IC50 was > 21.4 µM.
With `C=CN(c1ccccc1)c1nc(=O)[nH]c(=O)[nH]1`, the EC50 is > 200 µM and the IC50 is > 200 µM.
Take `COc1ccc(-c2cc(C(=O)Nc3cccc(C(F)(F)F)c3)[nH]c(=S)n2)cc1`: the EC50 was > 162 µM and the IC50 was > 162 µM.
`CN(C)CCCNC(=O)c1cc(NC(=O)c2cc(NC(=O)[C@H]3C[C@@H]3C(=O)Nc3cc(C(=O)Nc4cc(C(=O)NCCCN(C)C)n(C)c4)n(C)c3)cn2C)cn1C`: the result was inactive.
In the case of `O=C(CC(=O)N(C(=O)/C=C\c1ccccc1)c1ccc(Cl)cc1)N1N=C(c2ccccc2)C(N=Nc2cccc([N+](=O)[O-])c2)C1=O` (stereo not given), the EC50 is > 200 µM and the IC50 worked out at 3.55 µM.
The matching figures for `O=c1n(-c2ccccc2)c(=O)n2n1C1CC3c4ccccc4C1C32` (stereo not given): > 22.9 µM and > 22.9 µM.
With `O=C1C(=O)N(c2cccc(C(F)(F)F)c2)C(=S)N1c1ccccc1`, the EC50 is > 200 µM and the concentration for half-maximal inhibition (IC50) came to 30.9 µM.
Taken in the same sequence, the figures for `O=c1cc2ccc(Cl)cc2n[nH]1` were > 85.1 µM and > 85.1 µM.
As to `CN(C)CCC(/C=C/c1ccccc1)=N\Nc1ccc(Cl)c(Cl)c1`, the outcome was inactive.
With `Cc1cc(=O)oc2c(CNC(CO)C(=O)O)c(O)ccc12` (stereo not given), the EC50 was > 200 µM and the IC50 was > 200 µM.
For the compound `C=C1C(OC(=O)CC(c2ccccc2)N(C)C)C[C@H](OC(C)=O)[C@]2(C)C1C[C@@H]1CC(OC(C)=O)C(C)=C([C@@H](OC(C)=O)C2OC(C)=O)C1(C)C` (stereo not given in full), the result was inactive.
With `CCC[CH2][Sn]1([CH2]CCC)[O]CC(CN2CCOCC2)[O]1` (stereo not given), the EC50 is > 4.57 µM and the IC50 came to 0.295 µM.
The matching figures for `COC(=O)C(C(=O)C(=O)Nc1ccccc1OC)c1csc(-n2nc(-c3ccccc3)cc2-c2ccccc2)n1` (stereo not given): > 115 µM and 97.7 µM.
Turning to `[N-]=[N+]=C1C(=O)NC(=O)N2C3OC(CO[C@@H]12)C(O)C3O` (stereo not given in full), the EC50 is > 200 µM and the IC50 was > 200 µM.
For the compound `COc1c(Br)cc(/C=C(\C#N)c2cccnc2)cc1Br`, the EC50 was > 200 µM and the IC50 amounted to 25.1 µM.
With `O=P(N1CC1)(N1CC1)N1CCN(P(=O)(N2CC2)N2CC2)CC1`, the EC50 was > 200 µM and the IC50 is 2.24 µM.
For the compound `CN(CCO)c1nc(=O)c2c(n1C1OC(CO)C(O)C(O)C1O)CCCC2` (stereo not given), the EC50 was > 339 µM and the IC50 is > 339 µM.
For the compound `O=C1CSC(c2ccccc2)C1C(=O)c1ccc(NCc2nc3ccccc3[nH]2)cc1` (stereo not given), the EC50 is > 200 µM and the IC50 worked out at 8.71 µM.
Regarding `C=CCCCCCCCCC(=O)NCCN1CCOCC1`, the EC50 was > 200 µM and the IC50 was > 200 µM.
Regarding `C(=N\Nc1ccc2ccccc2n1)/c1ccccn1`, the EC50 was > 20 µM and the IC50 came to 1.1 µM.
For the compound `CC(=O)Nc1ccc2c(c1)Cc1cc(N(CCO)CCO)ccc1-2`, the EC50 is > 200 µM and the IC50 amounted to 74.1 µM.
Taken in the same sequence, the figures for `CCN(CC)CCCC(C)Nc1cc(-c2ccccc2)nc2ccc(OC)cc12` (stereo not given) were > 363 µM and 2 µM.
On to `Nc1ccc(I)cn1`, for which the EC50 was > 200 µM and the IC50 is > 200 µM.
With `COc1ccccc1CN1CC(C)N(N=Cc2c3c(O)c4c(O)c(C)c5c(c4c2O)C(=O)C(C)(O/C=C/C(OC)C(C)C(OC(C)=O)C(C)C(O)C(C)C(O)C(C)/C=C/C=C(\C)C(=O)N3)O5)C(C)C1` (stereo not given), the EC50 was > 200 µM and the IC50 worked out at 7.76 µM.
Turning to `COc1ccc(/C(C)=N/NC(=O)c2ccncc2)cc1OC`, the EC50 is > 437 µM and the IC50 was > 437 µM.
As for `CCOC1(c2ccccc2)OC(=O)c2ccccc21` (stereo not given), the result was inactive.
